These results are taken from patent US8796466B2, “Hepatitis C virus inhibitors” (Bristol-Myers Squibb Company, priority 2009, dated 2014).

This assay concerns HCV 1b genotype. Description: HCV Replicon assay (HCV 1b genotype). Type of assay: cell-based, Hepatitis C virus. The settings on record: HCV 1b genotype replicon. Here is the method: An HCV Replicon assay was utilized in the present disclosure, and was prepared, conducted and validated as described in commonly owned PCT/US2006/022197 and in O'Boyle et. al. Antimicrob Agents Chemother. 2005 April; 49(4):1346-53. Assay methods incorporating luciferase reporters have also been used as described (Apath.com).
HCV-neo replicon cells and replicon cells containing mutations in the NS5A region were used to test the currently described family of compounds. The compounds were determined to have more than 10-fold less inhibitory activity on cells containing mutations than wild-type cells. Thus, the compounds of the present disclosure can be effective in inhibiting the function of the HCV NS5A protein and are understood to be as effective in combinations as previously described in application PCT/US2006/022197 and commonly owned WO/04014852. Further, the compounds of the present disclosure can be effective against the HCV 1b genotype. It should also be understood that the compounds of the present disclosure can inhibit multiple genotypes of HCV. […] In one embodiment, compounds of the present disclosure are inhibitory versus 1a, 1b, 2a, 2b, 3a, 4a, and 5a genotypes.
In general terms: Replicon systems follow genome replication, usually without infectious particles.

Setting [1] is: Hepatitis C virus, class symbol, read-out: Range (EC50 values against HCV 1b).
The mark [2] stands for this setting: Hepatitis C virus, Effective 50% inhibitory concentration, read-out: 1b EC50.

Where two headings read alike, the source gives them in different places.

What is called EC50 is the concentration needed to bring the measured effect to its halfway point. As for `COC(=O)N[C@H](C(=O)N1[C@@H]2C[C@@H]2C[C@H]1c1ncc(-c2ccc([C@H]3C[C@@H]3c3ccc(-c4cnc([C@@H]5C[C@H]6C[C@H]6N5C(=O)[C@@H](NC(=O)OC)C5CCOCC5)[nH]4)cc3)cc2)[nH]1)C1CCOCC1` [Example M9.4, dimethyl ((1S,2S)-1,2-cyclopropanediylbis(4,1-phenylene-1H-imidazole-4,2-diyl(1R,3S,5R)-2-azabicyclo[3.1.0]hexane-3,2-diyl((1S)-2-oxo-1-(tetrahydro-2H-pyran-4-yl)-2,1-ethanediyl)))biscarbamate], under setting [1], the EC50 is 0.002 to 0.099 nM. Same read-out and setting: the same measure for `COC(=O)N[C@H](C(=O)N1[C@@H]2C[C@@H]2C[C@H]1c1nc(-c2ccc([C@@H]3C[C@H]3c3ccc(-c4c[nH]c([C@@H]5C[C@H]6C[C@H]6N5C(=O)[C@@H](NC(=O)OC)C5CCOCC5)n4)cc3)cc2)c[nH]1)C1CCOCC1` [Example M9.6, dimethyl ((1R,2R)-1,2-cyclopropanediylbis(4,1-phenylene-1H-imidazole-4,2-diyl(1R,3S,5R)-2-azabicyclo[3.1.0]hexane-3,2-diyl((1S)-2-oxo-1-(tetrahydro-2H-pyran-4-yl)-2,1-ethanediyl)))biscarbamate]: 0.002 to 0.099 nM; for `COC(=O)N[C@H](C(=O)N1C[C@@H](C)C[C@H]1c1ncc(-c2ccc([C@H]3C[C@@H]3c3ccc(-c4cnc([C@@H]5C[C@H](C)CN5C(=O)[C@@H](NC(=O)OC)C(C)C)[nH]4)cc3)cc2)[nH]1)C(C)C` [Example M9.7, methyl ((1S)-1-(((2S,4S)-2-(4-(4-((1S,2S)-2-(4-(2-((2S,4S)-1-((2S)-2-((methoxycarbonyl)amino)-3-methylbutanoyl)-4-methyl-2-pyrrolidinyl)-1H-imidazol-4-yl)phenyl)cyclopropyl)phenyl)-1H-imidazol-2-yl)-4-methyl-1-pyrrolidinyl)carbonyl)-2-methylpropyl)carbamate]: 0.002 to 0.099 nM.

For `COC(=O)N[C@H](C(=O)N1C[C@@H](C)C[C@H]1c1ncc(-c2ccc([C@H]3C[C@@H]3c3ccc(-c4cnc([C@@H]5C[C@H](C)CN5C(=O)[C@@H](NC(=O)OC)C5CCOCC5)[nH]4)cc3)cc2)[nH]1)C1CCOCC1` [Example M9.8, dimethyl ((1S,2S)-1,2-cyclopropanediylbis(4,1-phenylene-1H-imidazole-4,2-diyl((2S,4S)-4-methyl-2,1-pyrrolidinediyl)((1S)-2-oxo-1-(tetrahydro-2H-pyran-4-yl)-2,1-ethanediyl)))biscarbamate], the EC50 under setting [1] lay within 0.002 to 0.099 nM.

With `COC(=O)N[C@H](C(=O)N1[C@@H](C)CC[C@H]1c1ncc(-c2ccc(C#Cc3ccc(-c4cnc([C@@H]5CC[C@H](C)N5C(=O)[C@@H](NC(=O)OC)C(C)C)[nH]4)cc3)cc2)[nH]1)C(C)C` [Example M10, methyl ((1S)-1-(((2S,5S)-2-(4-(4-((4-(2-((2S,5S)-1-((2S)-2-((methoxycarbonyl)amino)-3-methylbutanoyl)-5-methyl-2-pyrrolidinyl)-1H-imidazol-4-yl)phenyl)ethynyl)phenyl)-1H-imidazol-2-yl)-5-methyl-1-pyrrolidinyl)carbonyl)-2-methylpropyl)carbamate], under setting [1], the EC50 lay in the range of 0.002 to 0.099 nM.

For the molecule `CC[C@H](NC(=O)OC)C(=O)N1[C@@H](C)CC[C@H]1c1nc(-c2ccc(C#Cc3ccc(-c4c[nH]c([C@@H]5CC[C@H](C)N5C(=O)[C@H](CC)NC(=O)OC)n4)cc3)cc2)c[nH]1` [Example M11, dimethyl (1,2-ethynediylbis(4,1-phenylene-1H-imidazole-4,2-diyl((2S,5S)-5-methyl-2,1-pyrrolidinediyl)((2S)-1-oxo-1,2-butanediyl)))biscarbamate], under setting [1], the EC50 is 0.002 to 0.099 nM. The same measure, in the same setting: the figure for `COC(=O)N[C@H](C(=O)N1[C@@H](C)CC[C@H]1c1nc(-c2ccc(C#Cc3ccc(-c4c[nH]c([C@@H]5CC[C@H](C)N5C(=O)[C@@H](NC(=O)OC)C5CCOCC5)n4)cc3)cc2)c[nH]1)C1CCOCC1` [Example M12, dimethyl (1,2-ethynediylbis(4,1-phenylene-1H-imidazole-4,2-diyl((2S,5S)-5-methyl-2,1-pyrrolidinediyl)((1S)-2-oxo-1-(tetrahydro-2H-pyran-4-yl)-2,1-ethanediyl)))biscarbamate] is 0.002 to 0.099 nM; for `COC(=O)N[C@H](C(=O)N1[C@@H](C)CC[C@H]1c1ncc(-c2ccc(C#Cc3ccc(-c4cnc([C@@H]5CC[C@H](C)N5C(=O)[C@@H](NC(=O)OC)C5CCOCC5)[nH]4)cc3)cc2)[nH]1)C(C)C` [Example M12.1, methyl ((1S)-1-(((2S,5S)-2-(4-(4-((4-(2-((2S,5S)-1-((2S)-2-((methoxycarbonyl)amino)-2-(tetrahydro-2H-pyran-4-yl)acetyl)-5-methyl-2-pyrrolidinyl)-1H-imidazol-4-yl)phenyl)ethynyl)phenyl)-1H-imidazol-2-yl)-5-methyl-1-pyrrolidinyl)carbonyl)-2-methylpropyl)carbamate] it is 0.002 to 0.099 nM. The same measure, in the same setting: the figure for `COC(=O)N[C@H](C(=O)N1C[C@@H](C)C[C@H]1c1ncc(-c2ccc(C#Cc3ccc(-c4cnc([C@@H]5C[C@H](C)CN5C(=O)[C@@H](NC(=O)OC)C(C)C)[nH]4)cc3)cc2)[nH]1)C(C)C` [Example M12.2, methyl ((1S)-1-(((2S,4S)-2-(4-(4-((4-(2-((2S,4S)-1-((2S)-2-((methoxycarbonyl)amino)-3-methylbutanoyl)-4-methyl-2-pyrrolidinyl)-1H-imidazol-4-yl)phenyl)ethynyl)phenyl)-1H-imidazol-2-yl)-4-methyl-1-pyrrolidinyl)carbonyl)-2-methylpropyl)carbamate] is 0.002 to 0.099 nM. In the case of `COC(=O)N[C@H](C(=O)N1C[C@@H](C)C[C@H]1c1ncc(-c2ccc(C#Cc3ccc(-c4cnc([C@@H]5C[C@H](C)CN5C(=O)[C@@H](NC(=O)OC)C5CCOCC5)[nH]4)cc3)cc2)[nH]1)C1CCOCC1` [Example M12.3, dimethyl (1,2-ethynediylbis(4,1-phenylene-1H-imidazole-4,2-diyl((2S,4S)-4-methyl-2,1-pyrrolidinediyl)((1S)-2-oxo-1-(tetrahydro-2H-pyran-4-yl)-2,1-ethanediyl)))biscarbamate], the EC50 reads like this: under setting [2], 0.014 nM; under setting [1], 0.002 to 0.099 nM. `COC(=O)N[C@H](C(=O)N1C[C@@H](C)C[C@H]1c1nc(-c2ccc(C#Cc3ccc(-c4[nH]c([C@@H]5C[C@H](C)CN5C(=O)[C@@H](NC(=O)OC)C(C)C)nc4Cl)cc3)cc2)c[nH]1)C(C)C` [Example M12.4, methyl ((1S)-1-(((2S,4S)-2-(4-(4-((4-(4-chloro-2-((2S,4S)-1-((2S)-2-((methoxycarbonyl)amino)-3-methylbutanoyl)-4-methyl-2-pyrrolidinyl)-1H-imidazol-5-yl)phenyl)ethynyl)phenyl)-1H-imidazol-2-yl)-4-methyl-1-pyrrolidinyl)carbonyl)-2-methylpropyl)carbamate]: under setting [1], the EC50 was 0.002 to 0.099 nM.

As for `COC(=O)N[C@H](C(=O)N1C[C@@H](C)C[C@H]1c1nc(Cl)c(-c2ccc(C#Cc3ccc(-c4[nH]c([C@@H]5C[C@H](C)CN5C(=O)[C@@H](NC(=O)OC)C(C)C)nc4Cl)cc3)cc2)[nH]1)C(C)C` [Example M12.5], the EC50 (class symbol, read-out: Range (EC50 values against HCV 1b)) was 0.002 to 0.099 nM. For `COC(=O)N[C@H](C(=O)N1C[C@@H](C)C[C@H]1c1nc(-c2ccc(C#Cc3ccc(-c4[nH]c([C@@H]5C[C@H](C)CN5C(=O)[C@@H](NC(=O)OC)C5CCOCC5)nc4Cl)cc3)cc2)c[nH]1)C1CCOCC1` [Example M12.6, methyl ((1S)-2-((2S,4S)-2-(4-(4-((4-(4-chloro-2-((2S,4S)-1-((2S)-2-((methoxycarbonyl)amino)-2-(tetrahydro-2H-pyran-4-yl)acetyl)-4-methyl-2-pyrrolidinyl)-1H-imidazol-5-yl)phenyl)ethynyl)phenyl)-1H-imidazol-2-yl)-4-methyl-1-pyrrolidinyl)-2-oxo-1-(tetrahydro-2H-pyran-4-yl)ethyl)carbamate], the EC50 under setting [1] lay in the range of 0.002 to 0.099 nM. Regarding `COC(=O)N[C@H](C(=O)N1C[C@@H](C)C[C@H]1c1nc(Cl)c(-c2ccc(C#Cc3ccc(-c4[nH]c([C@@H]5C[C@H](C)CN5C(=O)[C@@H](NC(=O)OC)C5CCOCC5)nc4Cl)cc3)cc2)[nH]1)C1CCOCC1` [Example M12.7, dimethyl (1,2-ethynediylbis(4,1-phenylene(4-chloro-1H-imidazole-5,2-diyl)((2S,4S)-4-methyl-2,1-pyrrolidinediyl)((1S)-2-oxo-1-(tetrahydro-2H-pyran-4-yl)-2,1-ethanediyl)))biscarbamate], the EC50 under setting [2] was 0.061 nM and the EC50 under setting [1] was in the range of 0.002 to 0.099 nM. As for `COC(=O)N[C@H](C(=O)N1C[C@@H](C)C[C@H]1c1ncc(-c2ccc(C#Cc3ccc(-c4cnc([C@@H]5C[C@H](C)CN5C(=O)[C@@H](NC(=O)OC)C5CCOCC5)[nH]4)cc3)cc2)[nH]1)C(C)C` [Example M12.8, methyl ((1S)-2-((2S,4S)-2-(4-(4-((4-(2-((2S,4S)-1-((2S)-2-((methoxycarbonyl)amino)-3-methylbutanoyl)-4-methyl-2-pyrrolidinyl)-1H-imidazol-4-yl)phenyl)ethynyl)phenyl)-1H-imidazol-2-yl)-4-methyl-1-pyrrolidinyl)-2-oxo-1-(tetrahydro-2H-pyran-4-yl)ethyl)carbamate], the EC50 under setting [1] fell in the range of 0.002 to 0.099 nM.
